This is an account of results in paper PMC12114375, “Discovery of Hydrazineyl Amide Derivative of Pseudolaric Acid B for Reprogramming Tumor-Associated Macrophages Against Tumor Growth” (Molecules, 2025).

One series concerns Raw264.7 cells. As to the kind of experiment: Cell viability (CCK-8) of RAW264.7 cells. Type of series: cell-based, mouse. As to conditions: IL-4/IL-13 plus compound 10 μM, 12 h. The protocol:
Cells were seeded in 96-well tissue culture plates. On the next day, cells were exposed to various concentrations of compounds and further cultured for the indicated period. Finally, cell proliferation was determined by using the Cell Counting Kit (CCK-8) (Dojindo, Kumamoto, Japan) assay.
Figure S2. Effects of natural pseudolaric acids 1-4, 6 and their O-pyranosides 5, 7 as well as the derivatives 8-18 o f 1 on Raw264.7 cell viability. Raw264.7 cells were treated with IL-4/IL-13 alone or combined with indicated compounds (10 μM) for 12 h. After incubation, the cell viability was determined using a cell counting kit (CCK-8, Dojindo, Japan) assay.
(1 picture or pasted object on this page, not shown here)

Series [1] concerns CD8+ T cell proliferation and activation suppressed by M2-like BMDMs. As to the kind of experiment: CD8+ T cell suppression assay (BMDM / spleen cell co-culture). Type of series: cell-based, mouse. As to conditions: BMDMs pretreated 48 h, co-cultured 48 h with anti-CD3/CD28-stimulated spleen cells. The method, then: Pro-tumoral M2-like TAMs are well-known to directly suppress CD8^+ T cell proliferation and activation. When they were co-cultured with autologous spleen cells, as expected, the IL-4/IL-13-induced BMDMs suppressed the proliferation and activation of CD8^+ T cells.
Spleen cells were isolated from C57BL/6 mice, followed by red blood cell (RBC) lysis. BMDMs were induced into M2-like macrophages and treated with different concentrations of compound 1 for 48 h. Then, 2 × 10^5 spleen cells/well were stimulated with αCD3/αCD28 and co-cultured with 2 × 10^4 pro-treated BMDMs in 96-well plates in LCM (RPMI 1640 with […] 2-mercaptoethanol and 10% fetal bovine serum) at 37 °C. After 48 h, the spleen cells were treated with the eBioscience™ Cell Stimulation Cocktail (plus protein transport inhibitors) for 4 h, and cell activation was then determined by the proportion of IFNγ^+ CD8^+ T cells and GRZB^+ CD8^+ T cells in CD8^+ T cells measured using flow cytometry. Cell proliferation was determined by the proportion of Ki67^+ CD8^+ T cells in CD8^+ T cells using flow cytometry.
Figure 3 Compound 12 reverses macrophage-mediated CD8^+ T cell suppression. […] The ratios of Ki67^+ CD8^+ T cells (A), IFNγ^+ CD8^+ T cells, and granzyme B^+ CD8^+ T cells (B) in total CD8^+ T cells were assessed using flow cytometry. […]

Series [2] concerns tumor-infiltrating immune cells in Hepa1-6 tumor. Briefly: Flow cytometric analysis of tumor-infiltrating immune cells in the Hepa1-6 model. Type of series: in vivo, C57 BL/6 mice. As to conditions: Hepa1-6 tumor tissue, 25 mg/kg, 2 h after the last treatment. The source says:
Encouraged by its intriguing cellular activities, we investigated the anti-tumor effect of compound 12 in vivo. The Hepa1-6 liver cancer model, an immunocompetent macrophage-rich subcutaneous murine tumor model, was thus established. […] To further investigate whether the in vivo anti-tumor effect of compound 12 is associated with its inhibition of pro-tumoral macrophages and consequent activation of anti-tumor CD8^+ T cells, we analyzed the infiltration of macrophages and CD8^+ T cells in the tumor tissue of the Hepa1-6 model.
Animal procedures were approved by the Institutional Animal Care and Use Committee of the Shanghai Institute of Materia Medica (approval no. 2024-06-DJ-95). Mice (4–6 weeks old) were housed with five or six mice per cage in a specific pathogen-free room with a 12 h light/dark schedule at 25 °C ± 1 °C and were fed an autoclaved chow diet and water ad libitum. Hepa1-6 cells (2 × 10^6 cells) were subcutaneously implanted in the right flank of C57 BL/6 mice. When the tumors reached a volume of around 50 mm^3, the mice were randomized into the treatment groups. The vehicle groups were given the vehicle alone, and the treatment groups received compound 1 in the indicated doses via intratumoral injections once daily on the indicated days. The tumor volumes and body weights were measured twice per week. Tumor volume (TV) was calculated as follows: TV = (length × width^2)/2. Significant differences between the treated versus the vehicle groups were determined using the Student’s t-test. […] Consequently, the sample size for this treatment group was reduced to 7. Hepa1-6 tumor tissues were minced and digested using a Mouse Tumor Dissociation Kit (Miltenyi, Bergisch Gladbach, Germany). The cells were passed through a 70 μm cell strainer, stained with a fluorescent antibody or the matching isotype controls for 30 min at room temperature, and then tested using a BD CytoFLEX LX (Beckman). […] Viability was determined by staining with either the LIVE/DEAD® Fixable Violet Dead Cell Stain Kit (Invitrogen, Waltham, […], USA) or the Zombie Aqua™ Fixable Viability Kit (Biolegend, San Diego, CA, USA). Data were analyzed using FlowJo10.4 software.
Figure 4 Compound 12 inhibited Hepa1-6 tumor growth in vivo and remodeled the tumor microenvironment. […] The TVs (A) and body weights (B) are presented as the mean ± SEM. * p < 0.05 vs. the vehicle group, determined by the Student’s t-test. […] The infiltration of CD45^+ cells (C), TAMs (D), CD206^+ TAMs (E), ARG1^+ TAMs (F), CD8^+ T cells (G), GRZB^+ CD8^+ T cells (H), IFN γ^+ CD8^+ T cells (I), and TNF α^+ CD8^+ T cells (J) was tested (n = 8 mice in the vehicle group and n = 7 mice in the 12-treated group). * p < 0.05, ** p < 0.01, *** p < 0.001 vs. the vehicle group, determined by the Student’s t-test. […]
On the technique in general: A flow cytometer gives signals particle by particle.

Regarding `COC(=O)C1=CC[C@@]23CC[C@@H]([C@@](C)(/C=C/C=C(\C)C(=O)NNCCO)OC2=O)[C@@]3(OC(C)=O)CC1` [compound 12, Methyl(3R,4S,4aS,9aR)-4a-acetoxy-3-((1E,3E)-5-(2-(2-hydroxyethyl)hydrazineyl)-4-methyl-5-oxopenta-1,3-dien-1-yl)-3-methyl-1-oxo-3,4,4a,5,6,9-hexahydro-1H-4,9a-ethanocyclohepta[c]pyran-7-carboxylate], in the series with Raw264.7 cells, the cell viability result is given as “no significant diminution in cell viability”. Also, in series [1], the “inhibitory effects of IL-4/IL-13-induced BMDMs on CD8+ T cell proliferation and activation (Ki67+, IFNγ+, GRZB+ CD8+ T cells)” value is “dose-dependently reversed”. In addition, in series [2], the “TAMs with the M1-like phenotype (CD86+ TAMs, MHC II+ TAMs)” value is listed as “marginal upregulation”; the “infiltration of CD8+ T cells and activated (GRZB+, IFNγ+, TNFα+) CD8+ T cells in CD45+ cells” value is given as “significantly upregulated”; the “infiltration of total immune cells (CD45+ cells)” value is “increasing trend”; the “tumor infiltration of total TAMs, CD206+ TAMs and ARG1+ TAMs in CD45+ cells” value was “significantly reduced”.
